Laboratory results as given in patent US20220040255A1, “CHEMOTHERAPEUTIC REMODELING OF THE GUT MICROBIOME” (THE SCRIPPS RESEARCH INSTITUTE, priority 2018, published 2022).
Where a SMILES comes first, the peptide text is derived from it. [ ]: non-standard residue; d: D form.

What was measured:
[1] = plasma cholesterol and lipoprotein profile; format: in vivo, LDLr−/− mice; details: for reduction in cholesterol in the CHD mice: CHD-fed mice; for HDL-cholesterol levels / levels of VLDL and LDL / reduction of plasma total cholesterol compared to the untreated WD group: WD; for HDL-cholesterol levels / levels of VLDL and LDL: peptide-treated animals; for reduction of plasma total cholesterol compared to the untreated WD group: two-week time point, oral administration
Protocol: (§1) Animals and diets. LDL receptor-null (LDLr^−/−) mice on a C57BL/6J background were initially purchased from Jackson Laboratories (Bar Harbor, Me.) and were bred in house. Unless otherwise noted, all experiments were performed with 8-12 weeks old LDLr^−/− female mice. For studies involving analysis of the gut microbiome, the mice were rotated between cages and co-housed with the mice from different groups for at least one week before the beginning of each study to reduce the variation in the composition of gut microbiome caused by the housing environment. The mice were weaned at 4 weeks of age and were fed ad libitum a standard chow diet (Harlan Teklad 7019) until they were 10-weeks old, when they were switched to a high-fat diet (WD) containing 15.8% (wt/wt) fat, 1.25% (wt/wt) cholesterol, and no cholate (Harlan Teklad 94059). At the time that the WD was started, the cyclic peptide was added to the drinking water at a dose of 180 μM and the mice (female, n=8 per dosing group) were continued on WD for 10 weeks. The lyophilized peptide was dissolved in PBS (pH 7.4) containing 1% sucrose, resulting in a clear solution. The drinking water solution was replaced with fresh solution daily for c[wLwReQeR] (SEQ ID NO:11) or every other day for c[wLwKhShK] (SEQ ID NO:1). A control group of eight mice (female, n=8) was fed WD and provided vehicle (PBS with 1% sucrose) drinking water. The mice consumed approximately 4.0 mL of water per day per mouse, and there was no significant difference in water or food consumption between groups. All procedures involving live animals were approved by the Scripps Research Institute Institutional Animal Care and Use Committee.
Measurement of plasma cholesterol and liver enzyme activities. The mice were bled after an overnight fast after 2 and 10 weeks of treatment. The plasma samples were used to determine lipoprotein profiles and the levels of cholesterol, alanine aminotransferase (ALT), and aspartate aminotransferase (AST). Measurements of plasma levels of cholesterol, ALT, and AST were performed as described in Zhao et al., ACS Cent. Sci. 3, 639-646, 2017. Briefly, plasma was separated from whole blood immediately by centrifugation of the blood samples at 5,000 rpm for 10 min at 4° C., and was then stored at −80° C. Plasma total cholesterol was measured using an enzymatic fluorometric method kit (Amplex® red cholesterol assay kit, No. A12216, Life Technologies) according to the manufacturer's instructions. Plasma ALT and AST concentrations were measured using Infinity ALT (GPT) and AST (GOT) liquid stable assays, respectively, which are colorimetric kinetic assays (Thermo Scientific). Assays were performed in accordance with the manufacturer's recommendations, adjusting the reagent volumes (20 μL plasma+200 μL reagent, 0.69 cm light pathlength of the solution in the well) for analysis of samples in 96-well flat-bottom microplate format.
Plasma lipoprotein profile. Pooled plasma (240 μL total, 30 μL from each, n=8 fasted mice per group) from the two-week blood draw was used for fast protein liquid chromatography (FPLC) analysis. Lipoproteins were separated by using 3 Superdex 200 10/30 columns connected in series (GE Healthcare). The plasma was centrifuged at 11,000 rpm for 10 min at room temperature to remove particulates (floating material was gently mixed into liquid before removing the supernatant for FPLC injection). 200 μL of the pooled plasma was injected on the system eluted with 10 mM tris-HCl buffer, pH 7.4, containing 1 mM EDTA and 150 mM NaCl; a flow rate of 0.5 ml/min and fraction size of 0.5 mL were used.

gut microbiota = experiment: in vivo remodeling of the gut microbiome (feces 16S rRNA sequencing); set-up: species or system LDLr−/− mice; details: for overall microbiota alpha diversity: in vivo, 10-week study, peptide treatment; for time within which the Bacteroidetes/Firmicutes ratio increased relative to the vehicle WD-fed group: oral in drinking water, ~35 mg/kg/day, WD-fed LDLr−/− mice
Protocol: as §1
Feces sample collection and DNA extraction. The feces samples were freshly collected after 2, 6, and 10 weeks of treatment, snap-frozen, and stored at −80° C. Microbial genomic DNA was isolated with PowerSoil DNA isolation kit by following manufacturer's instructions (Mo Bio).
16S rRNA gene sequencing and processing. PCR amplicons of the V3-V4 16S rRNA region were amplified and sequenced using an Illumina MiSeq platform. For each sample, duplicate 25 μl PCR reactions were performed, each containing 50 ng of purified DNA, 12.5 μl 2×KAPA HiFi HotStart ReadyMix (Kapa biosystem), and 0.15 μM of each primer designed to amplify the V3-V4 region:
16S rRNA gene sequencing data analysis. We used custom python scripts to demultiplex sequencing reads based on the second barcode index and remove PCR duplication artifacts found using unique molecular identifiers prior to analyzing sequences using MOTHUR (version 1.36.1). […] Briefly, contigs were generated by combining forward and reverse paired-end reads. […] We performed a pre-clustering step to cluster reads up to 2 bp apart and removed all chimeric sequences. […]

atherosclerotic lesions = experiment: analysis of atherosclerosis (whole aorta en face, aortic sinus); format: in vivo, LDLr−/− mice; details: completion of the 10-week study
Protocol: Analysis of atherosclerosis. Atherosclerotic lesion severity was assessed in the aortae as previously described. Briefly, at euthanasia, animals were perfused with PBS, followed by 4% formaldehyde (10% UltraPure EM Grade from Polysciences diluted in PBS, pH 7.2). For en face analysis, the entire mouse aorta was dissected from the proximal ascending aorta to the bifurcation of the iliac artery by using a dissecting microscope. Adventitial fat was removed, and the aorta was opened longitudinally, pinned flat onto black dissecting wax, stained with Sudan IV, and photographed at a fixed magnification. The photographs were digitized, and total aortic areas and lesion areas were calculated by using Adobe Photoshop and NIH Image J software. The results were reported as a percentage of the total aortic area that contained lesions.
As a second assessment of atherosclerosis, lesions of the aortic root (heart sinus) were analyzed^55. Utilizing stereological principles, lesion volume was estimated across a fixed distance of the aortic sinus. After 10 min fixation in 4% paraformaldehyde, hearts were cut at an angle perpendicular to the atria of the heart and embedded in OCT (Tissue-Tek). Frozen hearts were sectioned on a Leica cryostat, with 10-μm sections collected from the beginning of the aortic sinus (defined as when a valve leaflet became visible) to 500 μm below the beginning of the sinus. […] Sections were collected in duplicate at 50-μm intervals. Sections were stained with oil red O, counterstained with Gill hematoxylin 1 (Fischer Scientific International), photographed, and digitized for lesion analysis. Scoring of valve lesion areas was done for each of the 3 valve cusps individually. Lesion areas found only within the valve cusp were measured. […] Lesion volume was calculated from an integration of the measured cross-sectional areas. Prediction of the coefficient of error (CE) in approximating lesion volume was computed using the Cavalieri estimator derived from a covariogram analysis of an ordered set of estimates of cross-sectional areas. This yielded CE values of less than 10% that were acceptable for a stereological computation of lesion volume.

SMILES	reduction in cholesterol in the CHD mice [1]	HDL-cholesterol levels [1]	levels of VLDL and LDL [1]	reduction of plasma total cholesterol compared to the untreated WD group [1]	overall microbiota alpha diversity (gut microbiota)	time within which the Bacteroidetes/Firmicutes ratio increased relative to the vehicle WD-fed group (gut microbiota)	reduction in atherosclerotic lesions, whole aorta lesion area (atherosclerotic lesions)	reduction of aortic sinus lesion volume (atherosclerotic lesions)
CC(C)C[C@@H]1NC(=O)[C@@H](Cc2c[nH]c3ccccc23)NC(=O)[C@H](CCCNC(=N)N)NC(=O)[C@@H](CCC(=O)O)NC(=O)[C@H](CCC(N)=O)NC(=O)[C@@H](CCC(=O)O)NC(=O)[C@H](CCCNC(=N)N)NC(=O)[C@@H](Cc2c[nH]c3ccccc23)NC1=O [c[wLwReQeR]] (cyclo([dW]L[dW]R[dE]Q[dE]R))	no analogous peptide-mediated reduction	higher	marked reduction	36%	unchanged	≤ 6 weeks	48%	37%
CC(C)C[C@@H]1NC(=O)[C@@H](Cc2c[nH]c3ccccc23)NC(=O)[C@H](CCCCN)NC(=O)[C@@H](Cc2c[nH]cn2)NC(=O)[C@H](CO)NC(=O)[C@@H](Cc2c[nH]cn2)NC(=O)[C@H](CCCCN)NC(=O)[C@@H](Cc2c[nH]c3ccccc23)NC1=O [c[wLwKhShK]] (cyclo([dW]L[dW]K[dH]S[dH]K))	no analogous peptide-mediated reduction	higher	marked reduction	37%	unchanged	≤ 2 weeks	37%	44%
